Reference: patent publication US20240343704A1, “HALO-SUBSTITUTED AMINO PYRIDINE COMPOUNDS AS INHIBITORS OF THE HAEMATOPOIETIC PROGENITOR KINASE 1 (HPK1)” (priority 2021, published 2024)

target: T1, Recombinant (1-346) HPK1 (h) (Homo sapiens, UniProt Q92918); assay: HPK1 Human STE Kinase Enzymatic Radiometric Assay; format: biochemical; conditions: read-out: HPK1 IC50 nM Range*
T1 construct: Recombinant (1-346) HPK1 (h) is incubated with 8 mM MOPS pH 7.0
T1 sequence (Q92918 1-346): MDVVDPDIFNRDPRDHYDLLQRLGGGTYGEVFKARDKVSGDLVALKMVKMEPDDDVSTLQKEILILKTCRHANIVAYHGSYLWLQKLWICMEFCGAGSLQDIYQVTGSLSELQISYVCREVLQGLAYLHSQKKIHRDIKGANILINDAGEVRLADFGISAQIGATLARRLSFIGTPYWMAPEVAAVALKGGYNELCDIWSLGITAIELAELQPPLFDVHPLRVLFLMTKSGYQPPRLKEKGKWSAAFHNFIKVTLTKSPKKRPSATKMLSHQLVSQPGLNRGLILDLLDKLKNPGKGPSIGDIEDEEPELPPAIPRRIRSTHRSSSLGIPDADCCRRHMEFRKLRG
Protocol: A stock solution of 10 mM of test compound is prepared in DMSO. The compound plate was prepared by 3-fold and 9-point serial dilutions. […] The reaction is initiated by The addition of the Mg/ATP mix. After incubation for 40 minutes at RT, the reaction is stopped by the addition of phosphoric acid to a concentration of 0.5%.

| IC50 [nM] | SMILES |
| --- | --- |
| 11 to 100 | CCN(C)Cc1cc(-c2cc(-c3ccc4c(c3)CCNC4=O)c(N)nc2F)ccc1C1CCOCC1 [I-428, 6-(2-amino-5-(3-((ethyl(methyl)amino)methyl)-4-(tetrahydro-2H-pyran-4-yl)phenyl)-6-fluoropyridin-3-yl)-3,4-dihydroisoquinolin-1(2H)-one] |
| 11 to 100 | CN(C)Cc1cc(-c2cc(-c3ccc4c(c3)CCNC4=O)c(N)nc2F)c(F)c(F)c1N1CCOCC1 [I-623, 6-(2-amino-5-(5-((dimethylamino)methyl)-2,3-difluoro-4-morpholinophenyl)-6-fluoropyridin-3-yl)-3,4-dihydroisoquinolin-1(2H)-one] |
| 0.1 to 10 | CN1CC2(CCN(c3ccc(-c4cc(-c5ccc6c(c5)CCNC6=O)c(N)nc4F)cc3)CC2)C1 [I-430, 6-(2-amino-6-fluoro-5-(4-(2-methyl-2,7-diazaspiro[3.5]nonan-7-yl)phenyl)pyridin-3-yl)-3,4-dihydroisoquinolin-1(2H)-one] |
| 11 to 100 | Cc1[nH]c(=O)c2ccc(-c3cc(-c4ccc(C5CCOCC5)c(CN(C)C)c4)c(F)nc3N)cc2c1F [I-521, 6-(2-amino-5-(3-((dimethylamino)methyl)-4-(tetrahydro-2H-pyran-4-yl)phenyl)-6-fluoropyridin-3-yl)-4-fluoro-3-methylisoquinolin-1(2H)-one] |
| 11 to 100 | Nc1nc(F)c(-c2ccc(N3CCOCC3)c(CN3CCOCC3)c2)cc1-c1cc2c(cc1F)C(=O)NCC2 [I-497, 6-(2-amino-6-fluoro-5-(4-morpholino-3-(morpholinomethyl)phenyl)pyridin-3-yl)-7-fluoro-3,4-dihydroisoquinolin-1(2H)-one] |
| 11 to 100 | CN(C)Cc1cc(-c2cc(-c3ccc4c(c3)CCNC4=O)c(N)nc2F)ccc1OC1CCOCC1 [I-530, 6-(2-amino-5-(3-((dimethylamino)methyl)-4-((tetrahydro-2H-pyran-4-yl)oxy)phenyl)-6-fluoropyridin-3-yl)-3,4-dihydroisoquinolin-1(2H)-one] |
| 11 to 100 | COC1CCN(Cc2cc(-c3cc(-c4cc5c(cc4F)C(=O)NCC5)c(N)nc3F)ccc2N2CCSCC2)CC1 [I-513, 6-(2-amino-6-fluoro-5-(3-((4-methoxypiperidin-1-yl)methyl)-4-thiomorpholinophenyl)pyridin-3-yl)-7-fluoro-3,4-dihydroisoquinolin-1(2H)-one] |
| 0.1 to 10 | CC(=O)N1CCC(Oc2ccc(-c3cc(-c4ccc5c(c4)CCNC5=O)c(N)nc3F)cc2CN(C)C)CC1 [I-568, 6-(5-(4-((1-acetylpiperidin-4-yl)oxy)-3-((dimethylamino)methyl)phenyl)-2-amino-6-fluoropyridin-3-yl)-3,4-dihydroisoquinolin-1(2H)-one] |
| 0.1 to 10 | Cc1nc2cc(-c3cc(-c4ccc(N5CCN(CCCC(F)F)CC5)cc4)c(F)nc3N)ccc2c(=O)[nH]1 [I-484, 7-(2-amino-5-(4-(4-(4,4-difluorobutyl)piperazin-1-yl)phenyl)-6-fluoropyridin-3-yl)-2-methylquinazolin-4(3H)-one] |
| 0.1 to 10 | Cc1nc2cc(-c3cc(-c4ccc(N5CCN(CCCC(F)F)CC5)cc4)c(F)nc3N)cc(F)c2c(=O)[nH]1 [I-467, 7-(2-amino-5-(4-(4-(4,4-difluorobutyl)piperazin-1-yl)phenyl)-6-fluoropyridin-3-yl)-5-fluoro-2-methylquinazolin-4(3H)-one] |
| 11 to 100 | CCN(C)Cc1c(N2CCOCC2)ccc(-c2cc(-c3cc4c(cc3F)C(=O)NCC4)c(N)nc2F)c1F [I-611, 6-(2-amino-5-(3-((ethyl(methyl)amino)methyl)-2-fluoro-4-morpholinophenyl)-6-fluoropyridin-3-yl)-7-fluoro-3,4-dihydroisoquinolin-1(2H)-one] |
| 101 to 1000 | CC(C)N1CCN(c2ccc(-c3cc(-c4ccc5c(=O)[nH]c(C6CCC6)nc5c4)c(N)nc3F)cc2)CC1 [I-413, 7-(2-amino-6-fluoro-5-(4-(4-isopropylpiperazin-1-yl)phenyl)pyridin-3-yl)-2-cyclobutylquinazolin-4(3H)-one] |
| 11 to 100 | COc1ccc(-c2cc(-c3cc4c(cc3F)C(=O)NCC4)c(N)nc2F)cc1CN1CC(OC)C1 [I-517, 6-(2-amino-6-fluoro-5-(4-methoxy-3-((3-methoxyazetidin-1-yl)methyl)phenyl)pyridin-3-yl)-7-fluoro-3,4-dihydroisoquinolin-1(2H)-one] |
| 0.1 to 10 | COCCN(C)Cc1cc(-c2cc(-c3ccc4c(c3)CCNC4=O)c(N)nc2F)ccc1N1CCOCC1 [I-553, 6-(2-amino-6-fluoro-5-(3-(((2-methoxyethyl)(methyl)amino)methyl)-4-morpholinophenyl)pyridin-3-yl)-3,4-dihydroisoquinolin-1(2H)-one] |
| 0.1 to 10 | Nc1nc(F)c(-c2ccc(N3CCOCC3)c(CN3CCC3)n2)cc1-c1cc2c(cc1F)C(=O)NCC2 [I-579] |
| 0.1 to 10 | Nc1nc(F)c(-c2ccc(N3CCN(C4CCC4)CC3)cc2)cc1-c1ccc2c(=O)[nH]cc(F)c2c1 [I-546, 6-(2-amino-5-(4-(4-cyclobutylpiperazin-1-yl)phenyl)-6-fluoropyridin-3-yl)-4-fluoroisoquinolin-1(2H)-one] |
| 11 to 100 | Cc1nc2cc(-c3cc(-c4ccc(N5C[C@@H](C)N(C)[C@@H](C)C5)cc4)c(F)nc3N)ccc2c(=O)[nH]1 [I-500, 7-(2-amino-6-fluoro-5-(4-((3R,5S)-3,4,5-trimethylpiperazin-1-yl)phenyl)pyridin-3-yl)-2-methylquinazolin-4(3H)-one] |
| 11 to 100 | COC1CCN(Cc2cc(-c3cc(-c4ccc5c(c4)CCNC5=O)c(N)nc3F)ccc2N2CCOCC2)CC1 [I-510, 6-(2-amino-6-fluoro-5-(3-((4-methoxypiperidin-1-yl)methyl)-4-morpholinophenyl)pyridin-3-yl)-3,4-dihydroisoquinolin-1(2H)-one] |
| 11 to 100 | CN(C)Cc1cc(-c2cc(-c3ccc4c(c3)CCNC4=O)c(N)nc2F)ncc1N1CCOCC1 [I-613, 6-(6′-amino-4-((dimethylamino)methyl)-2′-fluoro-5-morpholino-[2,3′-bipyridin]-5′-yl)-3,4-dihydroisoquinolin-1(2H)-one] |
| 11 to 100 | COCCN(C)Cc1cc(-c2cc(-c3cc4c(cc3F)C(=O)NCC4)c(N)nc2F)ccc1N1CCOCC1 [I-554, 6-(2-amino-6-fluoro-5-(3-(((2-methoxyethyl)(methyl)amino)methyl)-4-morpholinophenyl)pyridin-3-yl)-7-fluoro-3,4-dihydroisoquinolin-1(2H)-one] |
| 0.1 to 10 | Cc1c[nH]c(=O)c2cc(F)c(-c3cc(-c4ccc(N5CCN(C(C)C)CC5)cc4)c(F)nc3N)cc12 [I-577, 6-(2-amino-6-fluoro-5-(4-(4-isopropylpiperazin-1-yl)phenyl)pyridin-3-yl)-7-fluoro-4-methylisoquinolin-1(2H)-one] |
| 11 to 100 | COC1(C)NC(=O)c2ccc(-c3cc(-c4ccc(N5CCN(C(C)C)CC5)cc4)c(F)nc3N)cc2C1(F)F (centres unmarked) [I-450, 6-(2-amino-6-fluoro-5-(4-(4-isopropylpiperazin-1-yl)phenyl)pyridin-3-yl)-4,4-difluoro-3-methoxy-3-methyl-3,4-dihydroisoquinolin-1(2H)-one] |
| 101 to 1000 | Cc1c[nH]c(=O)c2ccc(-c3cc(-c4ccc5c(c4)[C@H](N(C)C)CO5)c(F)nc3N)cc12 [I-629, (S)-6-(2-amino-5-(3-(dimethylamino)-2,3-dihydrobenzofuran-5-yl)-6-fluoropyridin-3-yl)-4-methylisoquinolin-1(2H)-one] |
